In this experiment the test system is human breast cancer MDA-MB-436 cells. As to the kind of experiment: In vivo pharmacodynamic study, subcutaneous xenograft tumor model of MDA-MB-436 cells. Further details: species or system BALB/c nude mouse. As to conditions: for TGI: day 27; for Tumor volume (day 27): mean ± SEM. The source says:
Experimental Example 9: In Vivo Pharmacodynamic Study of Compounds in Subcutaneous Xenograft Tumor BALB/c Nude Mouse Model of Human Breast Cancer MDA-MB-436 Cells
Experimental objective: to study the efficacy in vivo of the test compound in subcutaneous xenograft tumor BALB/c nude mouse model of human breast cancer MDA-MB-436 cells.
Experimental materials: week age and body weight: female BALB/c nude mice, 6-8 weeks old, 18-22 g of body weight. The experiment started after 3-7-days of adaptive feeding. The animal information card of each cage provides the following information about the animals: number, sex, strain, receiving date, administration regime, experiment number, group and starting date of the experiment. All the cages, padding and drinking water were sterilized before use. The cages, feed and drinking water were changed twice a week. The experimental animals were identified with ear tags. Test samples: Example 24_A and Example 25_A. All the test samples were prepared with 10% DMSO+90% (20% HP-β-CD) as vehicle, and the blank control group was administered with the vehicle alone.
1. Cell culturing. Human breast cancer MDA-MB-436 cells (ATCC, Manassas, Va., catalog No.: HTB-130) were cultured in an RPMI-1640 culture medium containing 10% fetal bovine serum and 1% Anti-anti through in vitro monolayer culture in an incubator at 37° C./5% CO2. The cells were digested with trypsin-EDTA twice a week for passaging as per conventional practice. At a cell saturation of 80%-90% and a required number, the cells were collected, counted and inoculated. 2. Tumor cell inoculation (tumor inoculation). 0.2 mL (1×10^7 cells) of MDA-MB-436 cells (along with matrigel in a volume ratio of 1:1) was subcutaneously inoculated on the right back of each mouse, and the mice were randomly grouped when the average tumor volume was 318 mm^3. 3. Daily observation of experimental animals: animals were monitored daily for health and death, and routine examinations include observation of the effect of tumor growth and drug treatment on the daily performance of the animals, such as behavioral activities, food and water intake, weight changes, appearance, or other abnormal conditions. 4. Tumor measurements and experimental indices: the experimental indices were to investigate whether the tumor growth was inhibited, the tumor growth was delayed or the tumor was cured. Tumor diameters were measured twice weekly using a vernier caliper. The tumor volume was calculated using the following formula: V=0.5a×b^2, where a and b represent the long diameter and short diameter of the tumor, respectively. The anti-tumor therapeutic effect of the compound was evaluated by TGI (%) or relative tumor proliferation rate T/C (%). TGI (%) refers to the rate of tumor growth inhibition. Calculation of TGI (%): TGI (%)=[(1−(average tumor volume at the end of administration in a treatment group−average tumor volume at the start of administration of the treatment group))/(average tumor volume at the end of treatment of the solvent control group−average tumor volume at the start of treatment of the solvent control group)]×100%. The calculation formula for relative tumor proliferation rate T/C (%) was as follows: T/C (%)=TRTV/CRTV×100% (TRTV: RTV of treatment group; CRTV: RTV of negative control group). Relative tumor volume (RTV) was calculated based on the results of tumor measurement. The calculation formula was: RTV=Vt/V0, wherein V0 was the average tumor volume measured at the time of grouping and administration (i.e., d0), Vt was the average tumor volume at a certain measurement, and the data of TRTV and CRTV used were obtained on the same day. 5. Statistical analysis: including mean and standard error of mean (SEM) of tumor volume at each time point for each group. […] The experimental data were analyzed using a one-way ANOVA method and a Games-Howell method. All data analysis was performed with SPSS 17.0. p<0.05 was defined as a significant difference.

In the case of `CC1(c2ccc(-c3[nH]c4cc(F)cc5c4c3CONC5=O)cc2)CCCN1` (stereo not drawn) [Example 25_A], the TGI is, setting by setting: (12.5 mg/kg PO QD × 28 days) 95.34%; (25 mg/kg PO QD × 28 days) 114.69%; (50 mg/kg PO QD × 28 days) 117.86%. The “Tumor volume (day 27)” value runs as follows: (12.5 mg/kg PO QD × 28 days) 377 ± 149 mm^3; (25 mg/kg PO QD × 28 days) 132 ± 32 mm^3; (50 mg/kg PO QD × 28 days) 91 ± 14 mm^3.
